According to US5591714A, “Derivatives of A82846” (priority 1994, dated 1997):
≈ marks a conversion by molar mass, not a printed value.

How the values were obtained:
[1] = system: Streptococcus pneumoniae Park 1; type: cell-based
Description: (§1) The formula I compounds have in vitro and in vivo activity against Gram-positive pathogenic bacteria. The MIC's were determined using a standard agar-dilution assays.

[2] = system: Staphylococcus aureus S13E; type: cell-based
Description: as §1

[3] = system: Streptococcus pneumoniae; assay: In vivo activity, experimentally infected mice (ED50); settings: Streptococcus pneumoniae infection; doses administered subcutaneously to mice 1 and 4 hours postinfection
[4] = system: Klebsiella pneumoniae KAE; assay: MIC, standard agar-dilution assay; type: cell-based
Description: as §1

[5] = system: Escherichia coli EC14; assay: MIC, standard agar-dilution assay; type: cell-based
Description: as §1

[6] = system: Streptococcus pyogenes C203; assay: MIC, standard agar-dilution assay; type: cell-based
Description: as §1

[7] = system: Staphylococcus epidermidis 222; assay: MIC, standard agar-dilution assay; type: cell-based
Description: as §1

[8] = system: Staphylococcus aureus V41; assay: MIC, standard agar-dilution assay; type: cell-based
Description: as §1

[9] = system: Haemophilus influenzae C.L.; assay: MIC, standard agar-dilution assay; type: cell-based
Description: as §1

[10] = system: Escherichia coli TEM; assay: MIC, standard agar-dilution assay; type: cell-based
Description: as §1

[11] = system: Staphylococcus aureus NRRL X1.1; assay: MIC, standard agar-dilution assay; type: cell-based
Description: as §1

[12] = system: Staphylococcus aureus X400; assay: MIC, standard agar-dilution assay; type: cell-based
Description: as §1

[13] = system: Staphylococcus epidermidis EPI270; assay: MIC, standard agar-dilution assay; type: cell-based
Description: as §1

[14] = system: Klebsiella pneumoniae X68; assay: MIC, standard agar-dilution assay; type: cell-based
Description: as §1

[15] = system: Escherichia coli N10; assay: MIC, standard agar-dilution assay; type: cell-based
Description: as §1

[16] = system: Klebsiella pneumoniae X26; assay: MIC, standard agar-dilution assay; type: cell-based
Description: as §1

[17] = system: Haemophilus influenzae 76; assay: MIC, standard agar-dilution assay; type: cell-based
Description: as §1

[18] = system: Enterococcus faecalis 2041; assay: MIC, standard agar-dilution assay; type: cell-based
Description: as §1
^c Formerly Streptococcus faecalis 2041

[19] = system: Streptococcus pyogenes; assay: In vivo activity, experimentally infected mice (ED50); settings: Streptococcus pyogenes infection; doses administered subcutaneously to mice 1 and 4 hours postinfection
[20] = system: Enterococcus faecium X66; assay: MIC, standard agar-dilution assay; type: cell-based
Description: as §1
^b Formerly Streptococcus faecium X66

[21] = system: Staphylococcus aureus; assay: In vivo activity, experimentally infected mice (ED50); settings: Staphylococcus aureus infection; doses administered subcutaneously to mice 1 and 4 hours postinfection

SMILES | MIC [1] | MIC [2] | ED50 [3] [mg/kg/2] | MIC [4] [µg/mL] | MIC [5] [µg/mL] | MIC [6] | MIC [7] | MIC [8] | MIC [9] [µg/mL] | MIC [10] [µg/mL] | MIC [11] | MIC [12] | MIC [13] | MIC [14] [µg/mL] | MIC [15] [µg/mL] | MIC [16] [µg/mL] | MIC [17] [µg/mL] | MIC [18] | ED50 [19] [mg/kg/2] | MIC [20] | further results
CCCCCN(C)[C@H](CC(C)C)C(=O)N[C@H]1C(=O)N[C@@H](CC(N)=O)C(=O)N[C@H]2C(=O)N[C@H]3C(=O)N[C@H](C(=O)N[C@H](C(=O)O)c4cc(O)cc(O)c4-c4cc3ccc4O)[C@H](O[C@H]3C[C@](C)(N)[C@@H](O)[C@H](C)O3)c3ccc(cc3)Oc3cc2cc(c3O[C@@H]2O[C@H](CO)[C@@H](O)[C@H](O)[C@H]2O[C@H]2C[C@](C)(N)[C@@H](O)[C@H](C)O2)Oc2ccc(cc2Cl)[C@H]1O [Compound 6] | .125 µg/mL (≈ 0.0768 µM) | .25 µg/mL (≈ 0.154 µM) | 0.94 | > 128 | > 128 | .125 µg/mL (≈ 0.0768 µM) | .5 µg/mL (≈ 0.307 µM) | .25 µg/mL (≈ 0.154 µM) | > 128 | > 128 | .25 µg/mL (≈ 0.154 µM) | .25 µg/mL (≈ 0.154 µM) | .5 µg/mL (≈ 0.307 µM) | > 128 | > 128 | > 128 | > 128 | 1 µg/mL (≈ 0.614 µM) | 0.67 | 1 µg/mL (≈ 0.614 µM) | ED50 [21]: 0.88 mg/kg/2
CCCCCN[C@@]1(C)C[C@H](O[C@H]2[C@H](Oc3c4cc5cc3Oc3ccc(cc3Cl)[C@@H](O)[C@@H](NC(=O)[C@@H](CC(C)C)N(C)CCCCC)C(=O)N[C@@H](CC(N)=O)C(=O)N[C@H]5C(=O)N[C@H]3C(=O)N[C@H](C(=O)N[C@H](C(=O)O)c5cc(O)cc(O)c5-c5cc3ccc5O)[C@H](O[C@H]3C[C@](C)(N)[C@@H](O)[C@H](C)O3)c3ccc(cc3)O4)O[C@H](CO)[C@@H](O)[C@@H]2O)O[C@@H](C)[C@@H]1O [Compound 7] | .5 µg/mL (≈ 0.294 µM) | 1 µg/mL (≈ 0.589 µM) | 0.98 | > 128 | > 128 | .5 µg/mL (≈ 0.294 µM) | 1 µg/mL (≈ 0.589 µM) | 1 µg/mL (≈ 0.589 µM) | > 128 | > 128 | 1 µg/mL (≈ 0.589 µM) | 1 µg/mL (≈ 0.589 µM) | 2 µg/mL (≈ 1.18 µM) | > 128 | > 128 | > 128 | > 128 | 2 µg/mL (≈ 1.18 µM) | 0.83 | 2 µg/mL (≈ 1.18 µM) | ED50 [21]: 4.09 mg/kg/2
CN[C@H](CC(C)C)C(=O)N[C@H]1C(=O)N[C@@H](CC(N)=O)C(=O)N[C@H]2C(=O)N[C@H]3C(=O)N[C@H](C(=O)N[C@H](C(=O)O)c4cc(O)cc(O)c4-c4cc3ccc4O)[C@H](O[C@H]3C[C@](C)(N)[C@@H](O)[C@H](C)O3)c3ccc(cc3)Oc3cc2cc(c3O[C@@H]2O[C@H](CO)[C@@H](O)[C@H](O)[C@H]2O[C@H]2C[C@](C)(NCc3ccccc3)[C@@H](O)[C@H](C)O2)Oc2ccc(cc2Cl)[C@H]1O [Compound 10] | .125 µg/mL (≈ 0.0758 µM) | .125 µg/mL (≈ 0.0758 µM) | 0.4 | > 128 | > 128 | .25 µg/mL (≈ 0.152 µM) | .25 µg/mL (≈ 0.152 µM) | .25 µg/mL (≈ 0.152 µM) | > 128 | > 128 | .25 µg/mL (≈ 0.152 µM) | .5 µg/mL (≈ 0.303 µM) | .25 µg/mL (≈ 0.152 µM) | > 128 | > 128 | > 128 | > 128 | .5 µg/mL (≈ 0.303 µM) | 0.2 | .25 µg/mL (≈ 0.152 µM) | ED50 [21]: 0.46 mg/kg/2
CCN(CC)c1ccc(CN[C@@]2(C)C[C@H](O[C@H]3[C@H](Oc4c5cc6cc4Oc4ccc(cc4Cl)[C@@H](O)[C@@H](NC(=O)[C@@H](CC(C)C)NC)C(=O)N[C@@H](CC(N)=O)C(=O)N[C@H]6C(=O)N[C@H]4C(=O)N[C@H](C(=O)N[C@H](C(=O)O)c6cc(O)cc(O)c6-c6cc4ccc6O)[C@H](O[C@H]4C[C@](C)(N)[C@@H](O)[C@H](C)O4)c4ccc(cc4)O5)O[C@H](CO)[C@@H](O)[C@@H]3O)O[C@@H](C)[C@@H]2O)cc1 [Compound 17] | .25 µg/mL (≈ 0.145 µM) | .5 µg/mL (≈ 0.291 µM) | 0.33 | > 128 | > 128 | .25 µg/mL (≈ 0.145 µM) | .5 µg/mL (≈ 0.291 µM) | .5 µg/mL (≈ 0.291 µM) | > 128 | > 128 | .5 µg/mL (≈ 0.291 µM) | .5 µg/mL (≈ 0.291 µM) | 1 µg/mL (≈ 0.582 µM) | > 128 | > 128 | > 128 | > 128 | 1 µg/mL (≈ 0.582 µM) | 0.23 | 1 µg/mL (≈ 0.582 µM) | ED50 [21]: 0.78 mg/kg/2
CN[C@H](CC(C)C)C(=O)N[C@H]1C(=O)N[C@@H](CC(N)=O)C(=O)N[C@H]2C(=O)N[C@H]3C(=O)N[C@H](C(=O)N[C@H](C(=O)O)c4cc(O)cc(O)c4-c4cc3ccc4O)[C@H](O[C@H]3C[C@](C)(N)[C@@H](O)[C@H](C)O3)c3ccc(cc3)Oc3cc2cc(c3O[C@@H]2O[C@H](CO)[C@@H](O)[C@H](O)[C@H]2O[C@H]2C[C@](C)(NCc3ccc(Br)cc3)[C@@H](O)[C@H](C)O2)Oc2ccc(cc2Cl)[C@H]1O [Compound 18] | .25 µg/mL (≈ 0.145 µM) | 1 µg/mL (≈ 0.579 µM) | 0.25 | > 128 | > 128 | .125 µg/mL (≈ 0.0724 µM) | .5 µg/mL (≈ 0.29 µM) | 1 µg/mL (≈ 0.579 µM) | > 128 | > 128 | 1 µg/mL (≈ 0.579 µM) | 1 µg/mL (≈ 0.579 µM) | 1 µg/mL (≈ 0.579 µM) | > 128 | > 128 | > 128 | > 128 | 1 µg/mL (≈ 0.579 µM) | 0.15 | 1 µg/mL (≈ 0.579 µM) | ED50 [21]: 1.74 mg/kg/2
CN[C@H](CC(C)C)C(=O)N[C@H]1C(=O)N[C@@H](CC(N)=O)C(=O)N[C@H]2C(=O)N[C@H]3C(=O)N[C@H](C(=O)N[C@H](C(=O)O)c4cc(O)cc(O)c4-c4cc3ccc4O)[C@H](O[C@H]3C[C@](C)(NCc4ccc(Cl)cc4)[C@@H](O)[C@H](C)O3)c3ccc(cc3)Oc3cc2cc(c3O[C@@H]2O[C@H](CO)[C@@H](O)[C@H](O)[C@H]2O[C@H]2C[C@](C)(NCc3ccc(Cl)cc3)[C@@H](O)[C@H](C)O2)Oc2ccc(cc2Cl)[C@H]1O [Compound 23] | 1 µg/mL (≈ 0.553 µM) | 2 µg/mL (≈ 1.11 µM) | 1.02 | > 128 | > 128 | 2 µg/mL (≈ 1.11 µM) | 1 µg/mL (≈ 0.553 µM) | 2 µg/mL (≈ 1.11 µM) | > 128 | > 128 | 2 µg/mL (≈ 1.11 µM) | 2 µg/mL (≈ 1.11 µM) | 2 µg/mL (≈ 1.11 µM) | > 128 | > 128 | > 128 | > 128 | 4 µg/mL (≈ 2.21 µM) | 0.8 | 4 µg/mL (≈ 2.21 µM) | 
